Laboratory results published in publication PMC10609883, “Design, Synthesis and Biological Evaluation of Novel N-Arylpiperazines Containing a 4,5-Dihydrothiazole Ring” (Pharmaceuticals, 2023).
Several values for one entry are separate records, joined by “and”; a condition that tells them apart may be missing. Identical values can stand only once.

Columns and labels:
5-HT1A receptor = biological target: T1, 5-HT1A receptor (Rattus norvegicus, UniProt P19327); test: Competitive 5-HT1A binding assay, [3H]8-OH-DPAT, hippocampal membranes; design: species or system Sprague Dawley rats; settings: 5-HT1A receptor binding affinity; 1 nM [3H]8-OH-DPAT, hippocampal membrane; Cheng–Prusoff; read-out: Ki (µM, 95% CI)
T1 construct: supplemented with 0.1% ascorbate, 5 mM MgCl2 and 80 µg of hippocampal membrane suspension; from tissue; host or cells: rat hippocampus membranes (Sprague Dawley)
T1 sequence (P19327 1-422): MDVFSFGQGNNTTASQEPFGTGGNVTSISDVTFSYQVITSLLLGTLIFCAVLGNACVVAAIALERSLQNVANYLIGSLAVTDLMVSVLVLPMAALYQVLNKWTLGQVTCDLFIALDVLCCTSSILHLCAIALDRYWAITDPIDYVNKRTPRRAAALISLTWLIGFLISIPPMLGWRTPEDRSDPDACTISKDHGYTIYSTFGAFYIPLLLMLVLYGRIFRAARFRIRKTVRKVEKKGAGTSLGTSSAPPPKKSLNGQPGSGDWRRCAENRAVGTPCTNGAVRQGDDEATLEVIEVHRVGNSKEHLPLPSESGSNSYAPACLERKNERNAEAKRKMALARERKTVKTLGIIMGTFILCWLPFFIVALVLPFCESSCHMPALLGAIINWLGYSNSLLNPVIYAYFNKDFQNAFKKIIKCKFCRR
Protocol: Brains were rapidly removed and placed on ice. Hippocampi (for 5-HT1A assays) and frontal cortices (for 5-HT2A assays) were dissected on a Petri dish. […] The homogenate was centrifuged at 48,000× g at 4 °C for 15 min. […] The centrifugation and suspension steps were repeated twice.
Non-specific binding was determined with 10 μM serotonin. The final DMSO concentration in the assay was 5%. […] Each well was washed with 2 mL of 50 mM Tris-HCl (pH 7.4) buffer to separate bound ligands from free ones. Plates were left to dry overnight. […] Binding curves were fitted with one site non-linear regression.

DU-145 = test: Cytotoxic activity, sulforhodamine B assay, DU-145; format: cell-based; settings: Homo sapiens, DU-145 prostate cancer cells, 72 h
Protocol: (§1) Media, serum and antibiotics for cell culture were from Lonza (Basel, Switzerland). MCF7 (ER+, PR+, HER2−), SKBR3 (ER−, […], HER2+) and MDA-MB231 (ER−, PR−, HER2−) human breast cancer cells; MCF10A non-cancer breast epithelial cells; LNCAP (androgen sensitive), DU145 and PC3 (androgen independent) human prostate cancer cells; and PNT1 non-cancer prostate epithelial cells were available in our laboratory. MCF7, SKBR3 and MDA-MB231 cells were cultured in DMEM, supplemented with 10% FBS, 2 mM glutamine, 100 units/mL penicillin and 100 units/mL streptomycin. MCF10A cells were cultured in MEBM and supplemented with 0.4% BPE, 0.1% hEGF, 0.1%, Insulin, 0.1% Hydrocortisone and 0.1% GA-1000. LNCAP and DU145 cells were cultured in RPMI and supplemented with 10% FBS, 2 mM glutamine, 100 units/mL penicillin and 100 units/mL streptomycin. PC3 and PNT1 cells were cultured in DMEM-F12 (1:1), supplemented with 10% FBS, 2 mM glutamine, 100 units/mL penicillin and 100 units/mL streptomycin. Cultures were maintained in a humidified atmosphere of 95% air and 5% CO2 at 37 °C. Treatment with compounds were carried out in culture conditions. For cell survival assay, cells were fixed with 50% trichloroacetic acid for at least 2 h at 4 °C, washed with distilled and de-ionized water, air-dried and stained for 30 min with 0.4% sulforhodamine B in 1% acetic acid. Unbound dye was removed, and 10 mM tris-HCl solution (pH 7.5) was added to dissolve the protein-bound dye. Cell survival was assessed by optical density determination at 510 nm using a microplate reader.
(§2) Figure 1 Effect of novel thiazolinylphenyl-piperazines (2a–c) on PCa cell viability. LNCAP, DU145 and PC3 cells were treated with rising concentrations (5 μM, 10 μM, 25 μM, 50 μM, 100 μM) of 2a–c. After 72 h, cell viability was assessed by sulforhodamine B assay. The results were reported as percentage of viable cells compared to positive control (untreated cells that were considered to represent the maximum viability of 100%). […]

LNCAP = test: Cytotoxic activity, sulforhodamine B assay, LNCAP; format: cell-based, human; settings: 72 h, LNCAP prostate cancer cells
Protocol: as §1
(§3) Figure 1 Effect of novel thiazolinylphenyl-piperazines (2a–c) on PCa cell viability. LNCAP, DU145 and PC3 cells were treated with rising concentrations (5 μM, 10 μM, 25 μM, 50 μM, 100 μM) of 2a–c. After 72 h, cell viability was assessed by sulforhodamine B assay. The results were reported as percentage of viable cells compared to positive control (untreated cells that were considered to represent the maximum viability of 100%). Data represent the mean ± SD of at least three independent triplicate experiments. * denotes statistically significant values compared with positive control (* adjp < 0.05, ** adjp < 0.01).

SKBR-3 = test: Cytotoxic activity, sulforhodamine B assay, SKBR-3; format: cell-based; settings: Homo sapiens, SK-BR-3, SKBR-3 breast cancer cells, 72 h
Protocol: as §1
as §2, with “Figure 2” for “Figure 1”, “on BCa” for “on PCa”, “viability. MCF7, SKBR3” for “viability. LNCAP, DU145”, “and MDA” for “and PC3”

MDA-MB231 = test: Cytotoxic activity, sulforhodamine B assay, MDA-MB231; format: cell-based; settings: Homo sapiens, MDA-MB-231, MDA-MB231 breast cancer cells, 72 h
Protocol: as §1
as §3, with “Figure 2” for “Figure 1”, “on BCa” for “on PCa”, “viability. MCF7, SKBR3” for “viability. LNCAP, DU145”, “and MDA” for “and PC3”, “< 0.01, *** adjp < 0.001).” for “< 0.01).”
as §3, with “Figure 3” for “Figure 1”, “thiazolinylphenyl-piperazines (3a–c)” for “thiazolinylphenyl-piperazines (2a–c)”, “on PC3 and MDA” for “on PCa”, “viability. Cells” for “viability. LNCAP, DU145 and PC3 cells”, “of 3a-c.” for “of 2a–c.”, “< 0.01, *** adjp < 0.001, **** adjp < 0.0001).” for “< 0.01).”

MCF-7 = test: Cytotoxic activity, sulforhodamine B assay, MCF-7; format: cell-based; settings: Homo sapiens, MCF7, MCF-7 breast cancer cells, 72 h
Protocol: as §1
as §2, with “Figure 2” for “Figure 1”, “on BCa” for “on PCa”, “viability. MCF7, SKBR3” for “viability. LNCAP, DU145”, “and MDA” for “and PC3”

PC-3 = test: Cytotoxic activity, sulforhodamine B assay, PC-3; format: cell-based; settings: Homo sapiens, PC-3 prostate cancer cells, 72 h
Protocol: as §1
Figure 1 Effect of novel thiazolinylphenyl-piperazines (2a–c) on PCa cell viability. LNCAP, DU145 and PC3 cells were treated with rising concentrations (5 μM, 10 μM, 25 μM, 50 μM, 100 μM) of 2a–c. After 72 h, cell viability was assessed by sulforhodamine B assay. […]
Figure 3 Effect of novel thiazolinylphenyl-piperazines (3a–c) on PC3 and MDA cell viability. […] After 72 h, cell viability was assessed by sulforhodamine B assay. […]

For `c1ccc(N2CCNCC2)c(C2=NCCS2)c1` [2a, 2-(2-(Piperazin-1-yl)phenyl)-4,5-dihydrothiazole], the Ki (5-HT1A receptor) was 2.29 µM and 2.3 µM, the IC50 (DU-145) was 66.6 ± 7.3 µM and the IC50 (LNCAP; Homo sapiens, LNCaP) was 67.2 ± 13.1 µM. The IC50 (SKBR-3) was 28.2 ± 4.1 µM, the IC50 (MDA-MB231) was 31.4 ± 5.1 µM and the IC50 (MCF-7) was 14.7 ± 1.9 µM.

`c1cc(C2=NCCS2)cc(N2CCNCC2)c1` [2b, 2-(3-(Piperazin-1-yl)phenyl)-4,5-dihydrothiazole] gave a Ki (5-HT1A receptor) of 0.412 µM, an IC50 (DU-145) of 66.6 ± 9.4 µM and an IC50 (LNCAP; Homo sapiens, LNCaP) of 48.5 ± 7.3 µM. For the same compound, the IC50 (SKBR-3) was 27.6 ± 5.6 µM, the IC50 (MDA-MB231) was 40 ± 9.8 µM and the IC50 (MCF-7) was 15.9 ± 1.8 µM.

`c1cc(N2CCNCC2)ccc1C1=NCCS1` [2c, 2-(4-(Piperazin-1-yl)phenyl)-4,5-dihydrothiazole] gave a Ki (5-HT1A receptor) of 49.5 µM, an IC50 (DU-145) of 47.7 ± 11.7 µM and an IC50 (LNCAP; Homo sapiens, LNCaP) of 32 µM. It also gave an IC50 (LNCAP) of 31.9 ± 9.2 µM, an IC50 (SKBR-3) of 27.7 ± 4.8 µM and an IC50 (MDA-MB231) of 36.3 ± 7.7 µM. For the same compound, the IC50 (MCF-7) was 19.5 ± 2.3 µM.

With `CC(=O)N1CCN(c2ccccc2C2=NCCS2)CC1` [3a, 1-(4-(2-(4,5-Dihydrothiazol-2-yl)phenyl)piperazin-1-yl)ethan-1-one] the melting point was 90 to 92 °C, the IC50 (PC-3) was 73.3 ± 10.3 µM and the IC50 (MDA-MB231) was 23.3 ± 3.4 µM.

Compound `CC(=O)N1CCN(c2cccc(C3=NCCS3)c2)CC1` [3b, 1-(4-(3-(4,5-Dihydrothiazol-2-yl)phenyl)piperazin-1-yl)ethan-1-one] has an IC50 (PC-3) of 65 ± 7.4 µM and an IC50 (MDA-MB231) of 34.6 ± 5.4 µM.

Compound `CC(=O)N1CCN(c2ccc(C3=NCCS3)cc2)CC1` [3c, 1-(4-(4-(4,5-Dihydrothiazol-2-yl)phenyl)piperazin-1-yl)ethan-1-one] has an IC50 (PC-3) of 32.1 ± 10.2 µM and an IC50 (MDA-MB231) of 47.1 ± 6.7 µM.
